Test results published in patent US4895842A, “Phenylalanine derivative and proteinase inhibitor” (Shosuke Okamoto, priority 1985, dated 1990).
Where a name gives a salt, the structure may show the parent alone.

Legend:
bovine thrombin [1] = target: T1, bovine thrombin (Bos taurus, UniProt P00735); experiment: Antithrombin activity: inhibition of fibrin formation from fibrinogen; assay type: biochemical
Summary of the method: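 Inhibitor in 0.18M borate-saline buffer pH 7.4 mixed with 0.2% bovine fibrinogen and 4 unit/ml bovine thrombin (stock levels) at 37° C; clotting time measured. I50 is the inhibitor concentration doubling coagulation time versus uninhibited control.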

human urokinase = human urokinase (Homo sapiens, UniProt P00749); experiment: biochemical; conditions: Table 2; S-2444 substrate, pH 8.8, 37° C.; read-out: Urokinase S-2444 (I50)
Summary of the method: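 Inhibitor in 0.05M Tris-HCl pH 8.8 preincubated 5 min at 37° C with S-2444 (1 mM solution added), then human urokinase (500 unit/ml solution) added for 5 min at 37° C; stopped with 50% acetic acid. p-Nitroaniline read at 405 nm; I50 is concentration halving absorbance versus no inhibitor.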

human plasmin [2] = target: T2, human plasmin (Homo sapiens, UniProt P00747); experiment: Antiplasmin activity: inhibition of fibrin decomposition; assay type: biochemical; conditions: Table 2; concentration at which fibrin dissolution time is extended twice, pH 7.4, 37° C.; read-out: Plasmin Fibrin (I50)
Summary of the method: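 Inhibitor in 0.18 M borate–physiological saline buffer, pH 7.4, received bovine fibrinogen (0.2% solution), human plasmin (0.3 casein unit/ml solution) and bovine thrombin (50 unit/ml solution) at 37 °C. Time for the resulting fibrin clot to dissolve was recorded.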

human plasmin [3] = target: T2, human plasmin; experiment: biochemical; conditions: read-out: Plasmin S-2251 (I50)
Summary of the method: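 Inhibitor in 0.05M Tris-HCl buffer, pH 7.4, was incubated with human plasmin added at 0.2 casein unit/ml (stock) at 37° C for 4 minutes, then stopped with 50% acetic acid. I50 (μmol) is the inhibitor concentration giving half the absorbance obtained without inhibitor.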

human plasma kallikrein = human plasma kallikrein (Homo sapiens, UniProt P03952); experiment: Anti-plasma kallikrein activity: inhibition of S-2302 decomposition; assay type: biochemical; conditions: Table 2; S-2302 substrate, pH 7.8, 37° C.; read-out: Plasma Kallikrein S-2302 (I50)
bovine trypsin = target: T3, bovine trypsin (Bos taurus, UniProt P00760); experiment: Antitrypsin activity: inhibition of S-2238 decomposition; assay type: biochemical; conditions: Table 2; S-2238 substrate, pH 8.1, 37° C.; read-out: Trypsin S-2238 (I50)
T3 sequence (P00760 24-246): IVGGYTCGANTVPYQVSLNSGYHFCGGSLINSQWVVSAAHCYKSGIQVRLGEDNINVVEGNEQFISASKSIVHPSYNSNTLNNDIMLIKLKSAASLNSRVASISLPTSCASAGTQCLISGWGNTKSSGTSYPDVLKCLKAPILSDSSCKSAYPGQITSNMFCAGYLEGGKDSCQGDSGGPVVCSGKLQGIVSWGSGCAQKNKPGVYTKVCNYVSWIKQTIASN
Method: Determination of inhibition activity against S-2238 decomposition
An inhibitor sample is dissolved in a 0.05M Tris-imidazole buffer solution (pH=8.1) and 125 μl of a 1 mM S-2238 solution is added to make the total volume to 1.20 ml. The mixture is incubated at a temperature of 37° C. for 5 minutes in a constant temperature bath. To this mixture, 0.05 ml of bovine trypsin is added and the absorbance, at 405 nm, of the p-nitroaniline formed per minute is determined at a temperature of 37° C. by using the so-called initial velocity method. Thus, the concentration I50 (μmol) of the inhibitor sample, at which the absorbance is one half (i.e., 1/2) of that obtained in the absence of the inhibitor sample, is determined.

bovine thrombin [4] = target: T1, bovine thrombin; experiment: Antithrombin activity: inhibition of S-2238 decomposition; assay type: biochemical
Summary of the method: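 Inhibitor in 0.05 M Tris-HCl, pH 8.3, preincubated with S-2238 (0.2 mM stock) for 5 min at 37 °C. Bovine thrombin (0.2 unit/ml stock) then added, and p-nitroaniline release followed at 405 nm by initial velocity at 37 °C. I50 is the concentration halving the rate.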

[5] = Table 2, S-2238 substrate, pH 8.3, 37° C., read-out: Thrombin S-2238 (I50)
[6] = read-out: Thrombin Fibrinogen (I50), Table 2, concentration at which coagulation time of bovine fibrinogen is extended twice, pH 7.4, 37° C.
[7] = Table 2, 50% inhibition concentration, S-2251 substrate, pH 7.4, 37° C.

T2 sequence (P00747 581-810 limits assumed): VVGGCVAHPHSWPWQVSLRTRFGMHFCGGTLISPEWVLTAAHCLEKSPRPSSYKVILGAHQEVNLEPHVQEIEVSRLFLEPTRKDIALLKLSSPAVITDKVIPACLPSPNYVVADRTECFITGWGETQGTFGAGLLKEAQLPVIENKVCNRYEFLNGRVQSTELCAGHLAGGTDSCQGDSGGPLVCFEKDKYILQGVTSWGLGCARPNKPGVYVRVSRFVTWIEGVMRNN
T2 sequence (P00747 97-580 partner limits assumed): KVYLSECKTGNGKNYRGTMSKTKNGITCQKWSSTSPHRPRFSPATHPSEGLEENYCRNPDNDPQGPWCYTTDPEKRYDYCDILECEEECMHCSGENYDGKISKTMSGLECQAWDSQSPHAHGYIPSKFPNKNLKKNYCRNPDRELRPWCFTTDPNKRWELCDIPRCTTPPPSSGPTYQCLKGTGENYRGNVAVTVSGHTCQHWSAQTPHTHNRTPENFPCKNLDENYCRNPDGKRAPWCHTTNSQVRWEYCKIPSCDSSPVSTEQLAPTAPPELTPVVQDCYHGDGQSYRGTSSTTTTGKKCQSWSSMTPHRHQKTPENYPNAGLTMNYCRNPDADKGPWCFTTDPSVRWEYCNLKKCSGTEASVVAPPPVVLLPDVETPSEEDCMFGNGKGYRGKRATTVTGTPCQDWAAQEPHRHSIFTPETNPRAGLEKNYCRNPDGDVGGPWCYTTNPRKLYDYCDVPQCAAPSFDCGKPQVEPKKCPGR
Chain of human plasma kallikrein (P03952 391-638 limits assumed): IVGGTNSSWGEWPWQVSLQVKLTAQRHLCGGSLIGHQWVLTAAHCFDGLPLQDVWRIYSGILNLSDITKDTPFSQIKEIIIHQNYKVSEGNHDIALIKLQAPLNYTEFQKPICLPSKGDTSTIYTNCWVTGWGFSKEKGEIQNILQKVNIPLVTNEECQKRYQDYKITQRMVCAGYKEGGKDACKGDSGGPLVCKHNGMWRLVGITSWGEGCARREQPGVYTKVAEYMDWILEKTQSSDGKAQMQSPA
Chain of human plasma kallikrein (P03952 20-390 partner limits assumed): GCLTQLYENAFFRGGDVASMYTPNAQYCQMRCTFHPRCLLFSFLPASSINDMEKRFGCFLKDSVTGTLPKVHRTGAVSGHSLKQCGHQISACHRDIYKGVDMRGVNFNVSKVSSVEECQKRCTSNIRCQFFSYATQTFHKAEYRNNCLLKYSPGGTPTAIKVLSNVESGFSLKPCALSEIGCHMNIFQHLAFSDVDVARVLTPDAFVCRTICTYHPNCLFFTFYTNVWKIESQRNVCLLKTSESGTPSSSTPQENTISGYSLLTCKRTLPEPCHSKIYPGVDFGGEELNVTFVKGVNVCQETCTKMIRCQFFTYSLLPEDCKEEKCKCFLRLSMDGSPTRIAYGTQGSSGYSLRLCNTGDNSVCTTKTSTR

| SMILES | IC50 (bovine thrombin [1]) | IC50 (human urokinase) | IC50 (human plasmin [2]) | IC50 (human plasmin [3]) | IC50 (human plasma kallikrein) | IC50 (bovine trypsin) | IC50 (bovine thrombin [4]) | IC50 (bovine thrombin [4]; [5]) | IC50 (bovine thrombin [1]; [6]) | IC50 (human plasmin [3]; [7]) |
| --- | --- | --- | --- | --- | --- | --- | --- | --- | --- | --- |
| NC[C@H]1CC[C@H](C(=O)N[C@@H](Cc2ccc(OCc3ccccc3)cc2)C(=O)NC2CC3CCC2C3)CC1 (some centres unmarked) [compound 64] | > 250 µM | 65 µM | 0.49 µM | 2.5 µM | 2.3 µM | 1.1 µM | > 400 µM |  |  |  |
| NC[C@H]1CC[C@H](C(=O)N[C@@H](Cc2ccc(OCc3cccc(Cl)c3)cc2)C(=O)Nc2cccc(Cl)c2)CC1 [compound 66] | > 50 µM | 350 µM | 0.092 µM | 0.8 µM | 0.54 µM | 3.9 µM |  | > 50 µM |  |  |
| CC(=O)c1ccc(NC(=O)[C@H](Cc2ccc(OCc3ccncc3)cc2)NC(=O)[C@H]2CC[C@H](CN)CC2)cc1 [compound 68] | > 500 µM | 25 µM | 0.65 µM | 1.2 µM | 1.2 µM | 1 µM |  | > 400 µM |  |  |
| CCOC(=O)C1CCCC(NC(=O)[C@H](Cc2ccc(OCc3cccc(Cl)c3)cc2)NC(=O)[C@H]2CC[C@H](CN)CC2)C1 (some centres unmarked) [compound 70] |  | 82 µM | 0.63 µM |  | 6.2 µM | 1.3 µM |  | 170 µM | > 50 µM | 1.7 µM |
| CC(=O)c1ccc(NC(=O)[C@H](Cc2ccc(OCc3ccccc3Cl)cc2)NC(=O)[C@H]2CC[C@H](CN)CC2)cc1 [compound 83] | > 50 µM | 58 µM | 0.21 µM | 0.89 µM | 0.51 µM | 1.5 µM |  | > 200 µM |  |  |
| CCOC(=O)c1ccc(COc2ccc(C[C@H](NC(=O)[C@H]3CC[C@H](CN)CC3)C(=O)Nc3ccc(C(C)=O)cc3)cc2)cc1 [compound 86] | > 50 µM | 23 µM | 0.35 µM | 0.95 µM | 0.42 µM | 0.97 µM |  | > 100 µM |  |  |
| NCC1CCC(C(=O)NC(Cc2ccc(OCc3cccc(Cl)c3)cc2)C(=O)Nc2cccc(S(N)(=O)=O)c2)CC1 (centres unmarked) [compound 93] | > 100 µM | 78 µM | 0.32 µM | 1.6 µM | 1.2 µM | 2.5 µM |  | > 200 µM |  |  |
| CC1CCC(NC(=O)C(Cc2ccc(OCc3cccc(Cl)c3)cc2)NC(=O)C2CCC(CN)CC2)CC1C (centres unmarked) [compound 102] | > 50 µM | 320 µM | 0.16 µM | 0.69 µM | 3.5 µM | 1.3 µM |  | > 400 µM |  |  |
| CC(=O)c1ccc(NC(=O)C(Cc2ccc(Oc3cc(Cl)ccc3[N+](=O)[O-])cc2)NC(=O)C2CCC(CN)CC2)cc1 (centres unmarked) [compound 123] | > 50 µM | 26 µM | 0.28 µM | 0.39 µM | 0.078 µM | 0.71 µM |  | 95 µM |  |  |
| NC[C@H]1CC[C@H](C(=O)N[C@@H](Cc2ccc(OCc3ccc(Cl)c(Cl)c3)cc2)C(=O)Nc2ccncc2)CC1 [compound 127] | > 50 µM | 20 µM | 0.29 µM | 1.5 µM | 0.41 µM | 1.8 µM |  | > 200 µM |  |  |
| NC[C@H]1CC[C@H](C(=O)N[C@@H](Cc2ccc(OCc3cccc(Cl)c3)cc2)C(=O)Nc2ccnc(Cl)c2)CC1 [compound 128] | > 100 µM | 82 µM | 0.3 µM | 1.4 µM | 0.44 µM | 1.3 µM |  | > 1000 µM |  |  |
| CC(=O)c1ccc(NC(=O)[C@H](Cc2ccc([N+](=O)[O-])cc2)NC(=O)[C@H]2CC[C@H](CN)CC2)cc1 [compound 130, N-(trans-4-aminomethylcyclohexylcarbonyl)-4-nitro-L-phenylalanine 4-acetylanilide hydrochloride] | > 400 µM | 34 µM | 7.1 µM | 15 µM | 8.3 µM | 0.5 µM |  | > 400 µM |  |  |
| NCc1ccc(C(=O)N[C@@H](Cc2ccccc2)C(=O)Nc2cccc(C(F)(F)F)c2)cc1 [compound 131] | > 500 µM | > 250 µM | 56 µM | 170 µM | 17 µM | 4.4 µM |  | > 200 µM |  |  |

The next lines start with the values.

| IC50 (bovine thrombin [1]) | IC50 (human urokinase) | IC50 (human plasmin [2]) | IC50 (human plasmin [3]) | IC50 (human plasma kallikrein) | IC50 (bovine trypsin) | IC50 (bovine thrombin [4]) | IC50 (bovine thrombin [4]; [5]) | IC50 (bovine thrombin [1]; [6]) | IC50 (human plasmin [3]; [7]) | SMILES |
| --- | --- | --- | --- | --- | --- | --- | --- | --- | --- | --- |
|  | > 200 µM | 0.62 µM |  | 25 µM | 0.95 µM |  | > 50 µM | > 25 µM | 2.1 µM | CCOC(=O)C1CCCC(NC(=O)[C@H](Cc2ccc(OCc3cccc(Cl)c3)cc2)NC(=O)c2ccc(CN)cc2)C1 (some centres unmarked) [compound 72] |
| > 400 µM | > 200 µM | 210 µM | 220 µM | > 200 µM | 450 µM |  | > 400 µM |  |  | NCc1ccc(C(=O)N[C@@H](Cc2ccc(OCc3ccccc3)cc2)C(=O)N2CCN(C(=O)c3ccccc3)CC2)cc1 [compound 73] |
| > 100 µM | 65 µM | 0.88 µM | 5.6 µM | 2.4 µM | 1.1 µM |  | > 125 µM |  |  | CCOC(=O)c1cccc(NC(=O)[C@H](Cc2ccc(OCc3ccccc3)cc2)NC(=O)[C@H]2CC[C@H](CN)CC2)c1 [compound 75] |
| > 25 µM | > 250 µM | 2.4 µM | 5.8 µM | > 200 µM | 38 µM |  | > 50 µM |  |  | NCc1ccc(C(=O)N[C@@H](Cc2ccc(OCc3ccccc3)cc2)C(=O)N2CCC(C(=O)c3ccccc3)CC2)cc1 [compound 76] |
| > 50 µM | > 200 µM | 0.75 µM | 3.8 µM | 100 µM | 9.2 µM | > 50 µM |  |  |  | NCc1ccc(C(=O)N[C@@H](Cc2ccc(OCc3ccccc3)cc2)C(=O)NCCc2ccccc2)cc1 [compound 78] |
|  | > 400 µM | 2.9 µM |  | 40 µM | 7 µM |  | > 50 µM | > 25 µM | 8.5 µM | CC1CCCC(NC(=O)[C@H](Cc2ccc(OCc3ccccc3)cc2)NC(=O)c2ccc(CN)cc2)C1C (some centres unmarked) [compound 82] |
| > 20 µM | > 200 µM | > 20 µM | 33 µM | 120 µM | 52 µM |  | > 200 µM |  |  | NCc1ccc(C(=O)N[C@@H](Cc2ccc(OCc3ccccc3)cc2)C(=O)NC2CCC(O)CC2)cc1 (some centres unmarked) [compound 88] |
|  | > 200 µM | 2.6 µM |  | 40 µM | 2.5 µM |  | > 50 µM | > 50 µM | 4.2 µM | CCOC(=O)C1CCCC(NC(=O)[C@H](Cc2ccc(OCc3ccc(F)cc3)cc2)NC(=O)c2ccc(CN)cc2)C1 (some centres unmarked) [compound 105] |
| > 40 µM | > 200 µM | 0.27 µM | 0.58 µM | 20 µM | 0.43 µM |  | > 50 µM |  |  | CC1CCC(NC(=O)C(Cc2ccc(Oc3ccc([N+](=O)[O-])cc3)cc2)NC(=O)c2ccc(CN)cc2)CC1C (centres unmarked) [compound 109] |
| > 50 µM | > 150 µM | 0.77 µM | 3.4 µM | 3.7 µM | 3 µM |  | > 50 µM |  |  | CC(=O)c1ccc(NC(=O)C(Cc2ccc(OCc3ccccc3)cc2)NC(=O)c2ccc(CN)cc2)cc1 (centres unmarked) [compound 118] |
